What was measured:
[1] = test system: APC intact cells including CCD-841-CoN cells; assay: Crystal violet staining after 680C91 treatment, APC intact cells; format: cell-based, human; conditions: 680C91 dose-dependent, 48 hr, normal colon epithelial cells included
APC deficient cell lines = assay: Crystal violet staining after 680C91 treatment, APC deficient cell lines; format: cell-based, human; conditions: 680C91 dose-dependent, 48 hr
[2] = test system: APC-WT and APC-KO MC38 cell lines; assay: Crystal violet staining of APC-WT and APC-KO MC38 cell lines after 680C91; format: cell-based, mouse; conditions: APC-KO vs APC-WT MC38, dose-dependent, 48 hr
APC-KO MC38 cells [3] = assay: Cell death (caspase-3 assay, colony formation) with 680C91 alone and 680C91/Kyn; format: cell-based, mouse
Experimental: (§1) Normalized enrichment score (NES) and nominal P value are shown. […] The P value and R-square value are shown. […] Representative images of triplicate studies are shown. Scale bar, 100 μm. […] Dox food was applied at day 5 post-orthotopic injection to induce TDO2 knockdown in vivo (shControl, n=7, Dox, n=8, shAhR #1, #2, n=7). ***P<0.001. two-tailed t-test.
(§2) To assess the roles of TDO2-Kyn-AhR axis in cancer relevant processes, colony formation assays were performed using the APC-KO MC38 ishTDO2 cell lines and APC-KO MC38 shAhR cell lines. […] Thus, the TDO2-Kyn-Ahr axis supports APC-null cancer cell proliferation and survival and its tumorigenic potential.
(§3) Cell lysates were prepared with RIPA lysis buffer (Roche) with protease inhibitor […] Immunoblotting was performed following standard protocol. Antibodies were purchased from the indicated companies.
(§4) Colorectal cancer cell proliferation in vitro was assayed through colony formation. 1×10^3 cells were seeded in each well of 6-well plates and cultured for 5-7 days. At the end point, cells were fixed and stained with 0.5% crystal violet in 25% methanol for 1 hr. These studies were performed in triplicate.

Raw264.7 = assay: Transwell migration assay of macrophages in conditioned media; format: cell-based, mouse; conditions: co-treatment with CXCL5; SX-682 1 μM, 36 hr
Experimental: Two-way ANOVA analysis. […] Dox food was applied at day 5 post-orthotopic injection to induce TDO2 knockdown in vivo. n=4 per group. n.s.P>0.05, *P<0.05, […], ****P<0.0001. two-tailed t-test. […] FIGS. 12D and 12E show quantification of macrophages (F4/80+; FIG. 12D) and M2 macrophages (CD206+; FIG. 12E) in tumors shown in FIG. 12C. CyTOF data analyzed by FlowJo. Data represent mean±s.d., n=3 per group. *P<0.05, **P<0.01. two-tailed t-test. […] Recombinant CXCL5 protein (50 ng) and SX-682 (1 μM) were added to harvested condition media for 36 hr. Scale bar, 100 μm. n=3 biological replicates. Quantification is shown in lower panel. n.s. P>0.05, ***P<0.001, ****P<0.0001. two-tailed t-test. […] Clondronate liposomes or control encapsome liposomes were given intraperitoneally (100 μl) at day 2 post-orthotopic injection and three times a week. […]
Macrophages (1×10^4 for Raw264.7 and BMDM) were suspended in serum-free culture medium and seeded into 24-well Transwell inserts ([…]). […] After 24 h, the migrated macrophages were fixed and stained with crystal violet (0.05%, sigma), and then counted as cells per field of view under microscope or measured as OD590 nm (expressed as migration index) after crystal violet was dissolved.

[4] = test system: APC-WT MC38 orthotopic tumors; assay: Survival of C57BL/6J mice orthotopically implanted with APC-WT MC38 cells; format: in vivo, mouse; conditions: 100 mg/kg twice a day by oral gavage from day 5 post-injection
From the text: (§5) Induction of shTDO2 is indicated by GFP (highlighted with arrows). X63 magnification. […] Dox food was provided at day 5 after injection to induced TDO2 knockdown in vivo (n=5 per group). […] Scale bar, 100μm. […] Dox food was applied at day 5 post-orthotopic injection to induce TDO2 knockdown in vivo (ishTDO2 APC-WT MC38, n=5, ishTDO2 APC-WT+Dox MC38 and ishTDO2 APC-KO MC38, n=6, ishTDO2 APC-KO MC38+Dox, n=7). n.s.P>0.05, **P<0.01, ***P<0.001. two-tailed t-test. […] Dox food was applied at day 5 post-orthotopic injection to induce TDO2 knockdown in vivo (n=8 per group). n.s.P>0.05, **P<0.01, ***P<0.001. two-tailed t-test. FIGS. 4N and 4O show survival curves of C57BL/6J mice orthotopically implanted with APC-WT and APC-KO MC38 cell lines ([…]) treated with TDO2 inhibitor (FIG. 4N) or Epacadostat (FIG. 4O). TDO2 inhibitor and Epacadostat treatment (100 mg/kg) was initiated at day 5 post-injection twice a day by oral gavage. n.s.P>0.05, *P<0.05, ***P<0.001. Log-rank (Mantel-Cox) test. […] Scale bars, ×10 (200 μm).
(§6) The inventors synthesized the TDO2 inhibitor PF06845102/EOS200809 (“TDO2i”), which has been documented to inhibit TDO2 activity in vivo (Schramme et al., Cancer Immunol Res. 2020 January; 8(1):32-45; incorporated herein by reference in its entirety) and administrated the drug by oral gavage to mice bearing APC-WT or APC-KO MC38 orthotopic tumors. […]

[5] = test system: APC-KO MC38 orthotopic tumors; assay: Survival of C57BL/6J mice orthotopically implanted with APC-KO MC38 cells; format: in vivo, mouse; conditions: 100 mg/kg twice a day by oral gavage from day 5 post-injection
From the text: as §5, §6

APC-KO MC38 cells [6] = assay: Colony formation assay of TDO2- or AhR-depleted cells with Kyn; format: cell-based, mouse; conditions: Dox/Kyn co-treatment
Experimental: as §1, §2, §4

BMDM [7] = assay: RT-qPCR analysis of Gas6 expression in BMDM; format: cell-based, mouse; conditions: Kyn 1 mM, CXCL5 50 ng, Gas6 25 ng, 24 hr
Experimental: (§7) The red box indicates Axl. […] Six replicates per group. two-tailed t-test. *P<0.05. […] Epithelial cells are stained with EpCam and indicated by GFP. X63 magnification. […] Total flux measurement of at the end point. **P<0.01. two-tailed t-test. […] Total flux measurement of tumors was done at the end point. **P<0.01. two-tailed t-test.
To evaluate whether secreted factors from cancer cells might upregulate Gas6 expression in macrophages, BMDMs were incubated with conditioned media from MC38 cell lines. […] (FIG. 15H). Finally, to validate the roles of Gas6 in promoting tumor growth in vivo, CT26 cell lines and two independent Raw 264.7 shGas6 cell lines were co-injected into syngeneic Balb/CJ mice (FIG. 15I).
(§8) RNA was isolated from cells using Trizol (Invitrogen) following the manufacturer's instructions. RNA (200-500 ng) was first treated with RNase-free DNase I using the DNA-free kit (Ambion) to remove all genomic DNA, and then reverse-transcribed into cDNA using an ABI High Capacity cDNA RT Kit (Invitrogen). The cDNA was analyzed using real-time quantitative PCR (SYBR Green, Invitrogen) with an Applied Biosystems 7900 Sequence Detection System. Each reaction was performed in triplicate. The expression of each gene was normalized by that of mouse Actin or human GAPDH.

iKAP cell lysates = assay: Cleaved Caspase-3 immunoblot in iKAP cells, 680C91 alone and 680C91/Kyn; format: cell-based, mouse; conditions: 680C91/Kyn vs 680C91 alone
Experimental: as §1, §2, §3

BMDM [8] = assay: RT-qPCR of M2 macrophage signature genes in BMDM; format: cell-based, mouse; conditions: CXCL5 50 ng, Kyn 1 mM, 24 hr
Experimental: Scale bars, 50μm. […] Scale bars, 100 μm. […] (isTDO2 and isTDO2/shCXCL5 #2 groups, n=7, isTDO2/shCXCL5 #3, n=8). ****P<0.0001. two-tailed t-test. […] (shControl and shCXCL5 #2 groups, n=7, shCXCL5 #3, n=8). ****P<0.0001. two-tailed t-test.
as §8

[9] = test system: APC-WT and APC-KO MC38 cells; assay: Cell viability assay with STF-31; format: cell-based, mouse; conditions: STF-31 24 hr, dose-dependent
[10] = test system: Caco-2, DLD-1, and HCT-15 cell lines; assay: Immunoblot for TDO2 and β-catenin in CRC cell lines treated with XAV-939; format: cell-based, human; conditions: XAV-939 in a dose-dependent manner; WNT activity indicated by reduced level of β-catenin
Experimental: The motif sequence is conserved in human and mouse genes. […] GAPDH as a negative control and MYC and AXIN2 as positive controls. […] FIGS. 3K-3M show immunoblot for TDO2 and β-catenin in DLD-1 cells (FIG. 3K), Caco-2 cells (FIG. 3L), and HCT-15 cells (FIG. 3M) treated with XAV-939 in a dose-dependent manner.
Thus, APC loss induced activation of the WNT-betacatenin-TCF4 pathway resulting in TCF4-mediated upregulation of TDO2 gene transcription.
as §3

Axl = molecular target: T1, Axl (Mus musculus, UniProt Q00993); assay: Immunoblots for Axl and phospho-Axl; format: cell-based; conditions: APC-WT and APC-KO MC38 cells; R428 0.2 μM 24 h; rmGAS6 24 h
T1 construct: immunoblots for Axl and phospho-Axl in APC-WT and APC-KO MC38 cells after R428 treatment (0.2 μM, 24 h); endogenous in cells; host or cells: MC38 mouse colorectal cancer cells, APC-WT and isogenic APC-KO
T1 sequence (Q00993 19-888): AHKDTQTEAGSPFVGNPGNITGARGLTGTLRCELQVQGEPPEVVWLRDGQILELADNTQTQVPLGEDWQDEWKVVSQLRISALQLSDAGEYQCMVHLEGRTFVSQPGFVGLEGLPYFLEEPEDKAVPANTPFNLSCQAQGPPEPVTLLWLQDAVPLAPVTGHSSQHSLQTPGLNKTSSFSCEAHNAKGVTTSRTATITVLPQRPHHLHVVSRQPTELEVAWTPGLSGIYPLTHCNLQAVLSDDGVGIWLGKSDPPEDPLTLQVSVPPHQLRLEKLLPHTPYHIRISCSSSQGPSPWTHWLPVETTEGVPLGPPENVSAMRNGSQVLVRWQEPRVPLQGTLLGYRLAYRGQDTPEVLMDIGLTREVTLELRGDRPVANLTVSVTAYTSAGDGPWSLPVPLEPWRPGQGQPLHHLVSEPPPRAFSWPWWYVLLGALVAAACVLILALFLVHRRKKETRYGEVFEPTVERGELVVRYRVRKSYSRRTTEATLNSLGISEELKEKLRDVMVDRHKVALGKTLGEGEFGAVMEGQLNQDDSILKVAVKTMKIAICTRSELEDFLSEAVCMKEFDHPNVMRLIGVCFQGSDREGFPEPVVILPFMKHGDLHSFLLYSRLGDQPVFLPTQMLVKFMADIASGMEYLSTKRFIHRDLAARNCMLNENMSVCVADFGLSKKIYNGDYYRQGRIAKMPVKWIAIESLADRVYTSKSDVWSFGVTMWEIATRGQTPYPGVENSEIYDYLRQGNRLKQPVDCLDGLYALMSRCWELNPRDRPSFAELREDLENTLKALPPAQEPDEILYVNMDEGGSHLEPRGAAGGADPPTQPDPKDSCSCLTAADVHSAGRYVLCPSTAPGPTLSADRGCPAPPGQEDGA
From the text: as §7
(§9) Gas6 is a ligand of Axl and is secreted mainly by tumor-associated macrophages in the TME (Loges et al., 2010), raising the possibility that macrophage-derived Gas6 might activate Axl to support the growth of APC-deficient cancer cells.
as §3

[11] = test system: LS180 and HT-29 cell lines; assay: Colony formation assay with Gas6 and R428; format: cell-based, human; conditions: Gas6 25 ng, 36 hr
From the text: as §7, §9, §4

`Fc1ccc2c(/C=C/c3cccnc3)c[nH]c2c1` [680C91] was tested, and the growth and survival [1] was “but not APC intact cells”, the growth and survival (APC deficient cell lines) was “impaired the growth and survival” and the “sensitivity of APC depleted cells to TDO2 inhibition” value [2] was “higher sensitivity to TDO2 inhibition”. For the same compound, the “cell death indicated by caspase-3 assay” value (APC-KO MC38 cells [3]; 680C91 alone) was “increased cell death”.
`O=C(Nc1ccc(F)cc1)c1cnc(SCc2cc(OC(F)(F)F)ccc2B(O)O)nc1` [CXCR1/2 inhibitor] was tested, and the “effect on CXCL5 rescue of macrophage recruitment” value (Raw264.7) was “abrogated the rescue by CXCL5 supplementation”.
`NS(=O)(=O)NCCNc1nonc1C(=NO)Nc1ccc(F)c(Br)c1` [Epacadostat] was tested, and the “survival of mice bearing APC-WT MC38 tumors” value [4] was “did not exhibit anti-tumor effects” and the “survival of mice bearing APC-KO MC38 tumors” value [5] was “did not exhibit anti-tumor effects”.
In the case of `Nc1ccccc1C(=O)CC(N)C(=O)O` (centres unmarked) [Kyn, kynurenine], the “effect of Kyn on reduced colony formation after TDO2 and AhR depletion” value (APC-KO MC38 cells [6]) is reported as “rescued by Kyn treatment”, the Gas6 expression (BMDM [7]) is reported as “increased Gas6 expression” and the “cell death in iKAP model system” value (iKAP cell lysates) is reported as “decreased cell death”. The M2 macrophage markers (BMDM [8]) was “M2 macrophage markers increased” and the “effect of Kyn on 680C91-induced cell death” value (APC-KO MC38 cells [3]; 680C91/Kyn co-treatment) was “rescued by Kyn supplementation”.
`CC(C)(C)c1ccc(S(=O)(=O)NCc2ccc(C(=O)Nc3cccnc3)cc2)cc1` [STF-31] was tested, and the “sensitivity of APC-KO vs APC-WT MC38 cells” value [9] was “higher sensitivity”.
In the case of `Oc1nc(-c2ccc(C(F)(F)F)cc2)nc2c1CSCC2` [XAV-939], the TDO2 expression [10] is reported as “TDO2 expression was decreased”.
“rmGas6: mouse recombinant Gas6, ligand of Axl” was tested, and the Gas6 expression (BMDM [7]) was “increased Gas6 expression”, the Axl phosphorylation (Axl) was “activated Axl” and the “cancer cell growth in vitro” value [11] was “promoted cancer cell growth”.
